Here are results for five molecules from patent US4217345A, “3-0-(β-D-Glucuronopyranosyl)-soyasapogenol B” (Otsuka Pharmaceutical Co., Ltd., priority 1978, dated 1980).

One data set has as its system complement. The data set can be described thus: Anticomplementary activity: inhibition of hemolysis of sensitized erythrocytes (EA). It is filed as biochemical, guinea pig. The settings on record: for Anticomplementary Activity (50% hemolysis inhibitory activity value): guinea pig complement serum diluted 150 times, 60 minutes. The protocol:
The anticomplementary activity of the test compounds above was measured and confirmed by the testing method described in Meneki Kagaku (Immuno-Chemistry), Yuichi Yamamura et al., Ed. Asakura Shoten, Tokyo, Japan (1973) pages 830-834. Specifically, a test tube was charged with 0.5 ml of an aqueous dispersion of each of the test compounds, 0.5 ml of sensitized erythrocytes (EA) containing 1×10^8 cells/ml, 1 ml of a 5-fold diluted solution of a Veronal buffer solution containing isotonic gelatin (This 5-fold diluted solution is termed GVB^++ for brevity), and 0.5 ml of complement serum (guinea pig complement) diluted 150 times with the GVB^++. The mixture was maintained for 60 minutes. Then, 5 ml of an ice-fold physiological saline solution was added thereto and the mixture was centrifuged.

A short description of data set [1]: Acute toxicity (LD50) in mice. It is filed as in vivo. The conditions noted are these: mouse, in vivo, intravenous administration. As for the experimental part:
(§1) The actute toxicity (LD50 mg/kg) of the test compounds was determined on mice by intraperitoneal administration in the case of Compound A and intravenous administration in the case of Compound B.

The subject of a further data set is plasmin. The conditions noted are these: cited from earlier work.
The next data set concerns urokinase. The settings on record: cited from earlier work.
For another data set, the system named is Kallikrein. The settings on record: cited from earlier work.
The next data set concerns thrombin. The settings on record: cited from earlier work.
The next data set concerns complements. The settings on record: cited from earlier work.
Data set [2] has as its system hereditary angioneurotic edema. The settings on record: known complement inhibitors; cited from earlier work.
Another data set has as its system mice. The data set can be described thus: Acute toxicity (LD50) in mice. It counts as in vivo. The settings on record: intraperitoneal administration. As for the experimental part:
as §1

Data set [3] deals with Nephrotoxin-Type Nephritis. The data set can be described thus: Therapeutic effect on nephrotoxin-type nephritis: proteinuria level. It counts as in vivo, male Wistar rats. The settings on record: for Proteinuria Level, Average: 3 mg/body i.p. for seven days; for Proteinuria Level: 3 mg/body i.p. once every 24 hours for seven days, individual rat, listed as Compound of Invention. The protocol: Rat nephrotoxin ("NT" for brevity) was obtained as described below.
Rat kidney cortex was homogenized with an equal quantity of physiological saline. The homogenized mixture was mixed with Freund's complete adjuvant (a product of Difco Company) in a volume ratio of 1:1. 2 ml of the resulting mixture was intramuscularly injected into a rabbit (body weight 3,100 g) to immunize the rabbit. A month and a half later, blood was taken from the heart of the rabbit and serum was obtained. The resulting serum was inactivated at 56° C. for 30 minutes, then salted out with a 40% saturated aqueous solution of ammonium sulfate, and fractionated. The γ-globulin (IgG) fraction was collected to obtain NT.
The therapeutic evaluation was carried out using male Wistar rats with a body weight of 150 to 160 g with three replications for each test compound. The test compound was intraperitoneally administered once every 24 hours for seven days. One hour after the administration of the test compound on the third day, the NT was applied. The NT was intravenously injected in an amount of 1 ml at a tail vein of each rat. Physiological saline solution was used as a control.
The proteinuria level (total amount excreted into the urine over a 24 hour period) was measured using turbidometry employing bovine serum albumin as a control by means of sulfosalicylic acid.

The test system of a further data set is Heymann-Type Nephritis. Description: Therapeutic effects on Heymann-type nephritis: proteinuria level. It counts as in vivo, Male Wistar rats. The conditions noted are these: for Proteinuria Level: individual rat, listed as Compound of Invention. The protocol: Male Wistar rats with a body weight of 180 to 200 g were used in the test. Rat kidney cortex was extracted, and homogenized with an equal quantity by volume of a physiological saline solution. The homogenate was centrifuged at 1,500 G for 1 hour. The supernatant liquid was purified in accordance with the method of T. S. Edgington et al., Journal of Experimental Medicine, 127, 555 (1968), and mixed with Freund's complete adjuvant 37 Ra (a product of Difco Company) in a volume ratio of 0.4:1. The resulting mixture was injected intraperitoneally into isologous rats in an amount of 0.5 ml per rat. And then the same amount of its mixture was administered every 2 weeks until the proteinuria level exceeded 100 mg/day. (This period was about 6 to 8 weeks.)
Each of the test compounds was intraperitoneally administered to the rats affected with Heymann-type nephritis (with a body weight of 300 to 350 g) once a day for 7 days, and then the amount of proteinuria (mg/day) was measured in the same manner as described above. Physiological saline solution was used as a control.

Several values for one entry are separate records, joined by “and”; a condition that tells them apart may be missing. Equal values may be shown once.

In general, LD50 refers to the dose at which mortality reaches 50%. As to `CC1(C)[C@@H](O[C@H]2O[C@H](C(=O)O)[C@@H](O)[C@H](O)[C@H]2O[C@@H]2O[C@H](C(=O)O)[C@@H](O)[C@H](O)[C@H]2O)CC[C@]2(C)[C@H]3C(=O)C=C4[C@@H]5C[C@@](C)(C(=O)O)CC[C@]5(C)CC[C@@]4(C)[C@]3(C)CC[C@@H]12` [Compound B, Glycyrrhizin], in the data set with complement, the “Anticomplementary Activity (50% hemolysis inhibitory activity value)” value was 500-1,000 γ/ml. Also, in data set [1], the LD50 is greater than 300 mg/kg. Also, the “inhibitory activity against plasmin” value in the data set on plasmin was “inhibitory activity”. Besides, the “inhibitory activity against urokinase” value with urokinase is “inhibitory activity”. Also, in the data set on Kallikrein, the “inhibitory activity against Kallikrein” value was “inhibitory activity”. For the same molecule, the “inhibitory activity against thrombin” value in the data set on thrombin is reported as “inhibitory activity”. Also, in the data set on complements, the “inhibitory activity against complements” value is “inhibitory activity”.
As to `Cc1ccc(C(=O)Nc2ccc(S(=O)(=O)O)c3cc(S(=O)(=O)O)cc(S(=O)(=O)O)c23)cc1NC(=O)c1cccc(NC(=O)Nc2cccc(C(=O)Nc3cc(C(=O)Nc4ccc(S(=O)(=O)O)c5cc(S(=O)(=O)O)cc(S(=O)(=O)O)c45)ccc3C)c2)c1` [Suramin Sodium], the “use in the treatment of hereditary angioneurotic edema” value (from here on “use in the treatment”) in data set [2] is “used with success”.
Turning to `NCCCCCC(=O)O` [epsilon-aminocaproic acid], the “use in the treatment” value in data set [2] is recorded as “used with success”.
Consider `NC[C@H]1CC[C@H](C(=O)O)CC1` [tranexamic acid], for which the “use in the treatment” value in [2] is recorded as “used with success”.
For `CC1(C)C[C@@H](O)[C@]2(C)CC[C@]3(C)C(=CC[C@@H]4[C@@]5(C)CC[C@H](O[C@@H]6O[C@H](C(=O)O)[C@@H](O)[C@H](O)[C@H]6O)[C@@](C)(CO)[C@@H]5CC[C@]43C)[C@@H]2C1` [Compound A, 3-O-(β-D-glucuronopyranosyl)-soyasapogenol B], the “anticomplementary activity (in words)” value in the data set on complement was “potent anticomplementary activity”. For the same molecule, in the data set with complement, the “Anticomplementary Activity (50% hemolysis inhibitory activity value)” value was 5 µg/mL. Besides, the “Acute Toxicity LD50” value in the data set on mice was “Above 300 mg/kg”. Further, the “Proteinuria Level, Average” value in [3] (Day 1, average of 3 rats (control 15)) stood at 3.2 mg/day; in [3] (Day 4, average of 3 rats (control 20)), 2.3 mg/day; in data set [3] (Day 7, average of 3 rats (control 23)), 1.3 mg/day; in data set [3] (Day 10, average of 3 rats (control 33)), 9.7 mg/day; in the data set on Heymann-Type Nephritis (Before Administration, 3 mg/body i.p. group, average of 3 rats (control 129)), 123 mg/day; with Heymann-Type Nephritis (Day 1, 3 mg/body i.p. once a day for 7 days, average of 3 rats (control 116)), 112 mg/day. The “Proteinuria Level, Average” value in the data set with Heymann-Type Nephritis (Day 4, 3 mg/body i.p. once a day for 7 days, average of 3 rats (control 131)) is reported as 58 mg/day; in the data set on Heymann-Type Nephritis (Day 7, 3 mg/body i.p. once a day for 7 days, average of 3 rats (control 122)) it was 28 mg/day; in the data set with Heymann-Type Nephritis (Day 14, 3 mg/body i.p. once a day for 7 days, average of 3 rats (control 119)) it was 3 mg/day; in the data set on Heymann-Type Nephritis (Day 21, 3 mg/body i.p. once a day for 7 days, average of 3 rats (control 109)) it was 9 mg/day. Moreover, the “Proteinuria Level” value is 1.9 mg/day and 5.3 mg/day and 2.5 mg/day in [3] (Day 1); 1.2 mg/day and 2.9 mg/day and 2.7 mg/day in [3] (Day 4); 0.9 mg/day and 1.8 mg/day and 1.1 mg/day in [3] (Day 7); 7 mg/day and 13 mg/day and 9 mg/day in [3] (Day 10); 117 mg/day and 129 mg/day and 123 mg/day in the data set on Heymann-Type Nephritis (Before Administration, 3 mg/body i.p. group); 89 mg/day and 127 mg/day and 119 mg/day in the data set with Heymann-Type Nephritis (Day 1, 3 mg/body i.p. once a day for 7 days). Moreover, the “Proteinuria Level” value with Heymann-Type Nephritis (Day 4, 3 mg/body i.p. once a day for 7 days) was 42 mg/day and 75 mg/day and 58 mg/day; in the data set on Heymann-Type Nephritis (Day 7, 3 mg/body i.p. once a day for 7 days), 27 mg/day and 39 mg/day and 18 mg/day; in the data set on Heymann-Type Nephritis (Day 14, 3 mg/body i.p. once a day for 7 days), 3 mg/day and 17 mg/day and 9 mg/day; in the data set on Heymann-Type Nephritis (Day 21, 3 mg/body i.p. once a day for 7 days), 8 mg/day and 13 mg/day and 7 mg/day.
